Measurements: patent publication US7628996B2, “Sterile immunogenic non-tumorigenic tumor cell compositions and methods” (priority 2002, dated 2009)
Values joined by “and” are separate entries in the source; they are usually repeats but may differ in a detail not shown here. Equal values may be shown once. “Also recorded” adds a separate entry of the source.

Columns and labels:
Enterococcus faecalis = experiment: Short exposure of test microorganism to antibiotic; type: cell-based; conditions: 12.5 to 50 μg/mL, one hour at 37° C.
Protocol: (§1) Appropriate test microorganisms were incubated with the antibiotic for varying periods of time and at 4° C. or 37° C. “Untreated” controls were incubated with HBSS. After completion of the treatment, the samples were assayed for bioburden by the membrane filtration method on Tryptic Soy agar containing 5% sheep blood (TSA-SB) and Sabouraud's dextrose medium (SAB).
(§2) Two members of the quinolone class of antibiotics norfloxacin (Noroxin® (Merck & Co., Inc.)) and levofloxacin (Levaquin® (Ortho-McNeil)) also were evaluated. In preliminary experiments, norfloxacin was tested against Enterococcus faecalis and Pseudomonas aeruginosa.

Pseudomonas aeruginosa = experiment: Short exposure of test microorganism to antibiotic; type: cell-based; conditions: 12.5 to 50 μg/mL, one hour at 37° C.
Protocol: as §1, §2

Bacteriodes vulgatus = experiment: Short exposure of test microorganism to antibiotic; type: cell-based
Protocol: as §1
Anaerobes are the predominant microorganisms in the colon. […] Lincomycin (Lincocin hydrochloride) (Sigma-Aldrich Co.) and Primaxin® were then tested against this anaerobe.

colon tumor cells = experiment: Disinfection of trimmed colon tumor pieces before dissociation: tumor cell viability, yield, potency; type: cell-based, human; conditions: treatment of trimmed tumor pieces, relative to control
Text: For pathological staging purposes, the pathologist cuts the tumor to determine the deepest margin of penetration. Consequently, the excised tumors are comprised of several pieces of tumor tissue. The tissue was dissected to remove extraneous non-tumor and necrotic tissue. The trimmed tumor pieces were further subdivided to achieve homogeneity and divided into two to four groups for processing according to the experimental design. The tissue was divided as evenly as possible among the samples, taking care to make the tumor pieces in the experimental groups appear as identical as possible. The trimmed pieces were added to a tube containing 40 mL of disinfectant and then treated by shaking for 2 minutes at 200 rpm on a rotating platform shaker. […] The amount of tumor dissociated was determined by weighing the tumor fragments prior to dissociation and after completion of the dissociation cycles. […]
Tumor sample 500-0051-KNO was washed with saline, a second wash with 1% Triton X-100 and followed by three additional saline washes (see Example 1). […] In order to maximize the possible bioburden in the tumors and present a greater challenge to the disinfectant, the following modifications to the procedure were made: the tumors were minimally washed (one 500 mL quantity) prior to pathological dissection; the dissociations were performed in the absence of gentamicin.

[1] = test system: bioburden of colon tumors; experiment: Disinfection of trimmed colon tumor pieces before dissociation: bioburden of tumor cell suspension; type: cell-based; conditions: for effect of disinfectant on bioburden (in words): treatment of trimmed tumor pieces, concentrations tested; for Bioburden SAB-CM Aerobic / Bioburden TSA-SB Aerobic / Bioburden TSA-SB Anaerobic: per patient tumor sample
Text: (§3) For pathological staging purposes, the pathologist cuts the tumor to determine the deepest margin of penetration. Consequently, the excised tumors are comprised of several pieces of tumor tissue. The tissue was dissected to remove extraneous non-tumor and necrotic tissue. The trimmed tumor pieces were further subdivided to achieve homogeneity and divided into two to four groups for processing according to the experimental design. The tissue was divided as evenly as possible among the samples, taking care to make the tumor pieces in the experimental groups appear as identical as possible. The trimmed pieces were added to a tube containing 40 mL of disinfectant and then treated by shaking for 2 minutes at 200 rpm on a rotating platform shaker. The trimmed tumor pieces were then washed three times with HBSS and then dissociated. The amount of tumor dissociated was determined by weighing the tumor fragments prior to dissociation and after completion of the dissociation cycles. After dissociation, the tumor cell suspension was sampled for percent tumor cell viability, number of viable tumor cells, tumor cell potency and bioburden. The yield was defined as the number of viable tumor cells obtained per gram of tumor that was actually dissociated. The bioburden was normalized to CFU/10^7 viable tumor cells, approximately one dose of product.
(§4) Tumor sample 500-0051-KNO was washed with saline, a second wash with 1% Triton X-100 and followed by three additional saline washes (see Example 1). The resultant bioburden was below the limit of detection of the assay. In order to evaluate the ability of a disinfectant to remove bioburden, one to two logs of bioburden must be detectable in the control sample. In order to maximize the possible bioburden in the tumors and present a greater challenge to the disinfectant, the following modifications to the procedure were made: the tumors were minimally washed (one 500 mL quantity) prior to pathological dissection; the dissociations were performed in the absence of gentamicin.

[2] = test system: endogenous bioburden present in colon tumors; experiment: Additional one hour incubation with antibiotics after enzymatic dissociation: bioburden; type: cell-based; conditions: additional incubation vs no incubation; per tumor
Protocol: as §1
For the first four tumors processed, a portion of the cell suspension dissociated in the presence of gentamicin or gentamicin with other antibiotics was also incubated for an additional hour (after completion of the dissociation) with the same antibiotic(s). This additional incubation was evaluated for increased reduction of bioburden.

microbial growth = experiment: Disinfection of trimmed colon tumor pieces before dissociation: sterility in TSB and FTG broth; type: cell-based; set-up: key: Pass (P) (no evidence of microbial growth); Fail (F) (Microbial growth); conditions: per patient tumor sample
Text: as §3, §4

Candida albicans = experiment: Short exposure of test microorganism to anti-mycotic; type: cell-based
Protocol: as §1
Amphotericin B was selected for action on yeasts and mold.

[3] = 0.4% Clorpactin, 2 successive 2 min treatments
[4] = 0.4% Clorpactin, one 2 min treatment

## CCn1cc(C(=O)O)c(=O)c2cc(F)c(N3CCNCC3)cc21 [Norfloxacin, norfloxacin]
Enterococcus faecalis
  effectiveness (in words): ineffectual
Pseudomonas aeruginosa
  effectiveness (in words): highly effective

## CCC[C@@H]1C[C@@H](C(=O)N[C@@H]([C@H]2O[C@H](SC)[C@H](O)[C@@H](O)[C@H]2O)[C@@H](C)O)N(C)C1 [lincomycin, Lincomycin]
Bacteriodes vulgatus; extended conditions: 40 minutes at 37° C., 4° C. for 60 minutes, additional 60 minutes at 37° C.
  reduction of the anaerobe: one log reduction
Bacteriodes vulgatus; overnight at 4° C., Primaxin 100 μg/mL, lincomycin up to 150 μg/mL
  reduction of the anaerobe: no effect

## OCl [sodium hypochlorite]
Colon tumor cells
  effect of disinfectant on tumor cell yield (in words): significantly reduced the tumor cell yield relative to the control
[1]
  effect of disinfectant on bioburden (in words): effective in reducing the bioburden

## gentamicin
[2]
  Percent Reduction of Bioburden, SAB medium: 80%
  Percent Reduction of Bioburden, TSA medium: 41%

## sodium oxychlorosene [Clorpactin ®]
[1]; [3]
  Bioburden SAB-CM Aerobic: ≦2 CFU/107 Cells
  Bioburden TSA-SB Aerobic: ≦2 CFU/107 Cells
  Bioburden TSA-SB Anaerobic: 3800 CFU/107 Cells and ≦2 CFU/107 Cells
[1]; 0.4% Clorpactin, 2 successive 2 min treatments, vs control of same tumor
  % Reduction of bioburden TSA-SB Aerobic: (99%)
[1]; 0.4% Clorpactin, fresh disinfectant each time
  two successive two minute treatments versus single treatment (in words): No advantage for two treatments was observed
[1]; [4]
  Bioburden SAB-CM Aerobic: 207 CFU/107 Cells and ≦11 CFU/107 Cells and ≦23 CFU/107 Cells and ≦2 CFU/107 Cells (2×) and <49 CFU/107 Cells
  Bioburden TSA-SB Aerobic: 3910 CFU/107 Cells and <11 CFU/107 Cells and <23 CFU/107 Cells and 2 CFU/107 Cells and ≦2 CFU/107 Cells and <49 CFU/107 Cells
  Bioburden TSA-SB Anaerobic: 3890 CFU/107 Cells and 343 CFU/107 Cells and <23 CFU/107 Cells and 294 CFU/107 Cells and ≦2 CFU/107 Cells and <49 CFU/107 Cells
[1]; 0.8% Clorpactin, 2 min
  Bioburden SAB-CM Aerobic: 4452 CFU/107 Cells and ≦13 CFU/107 Cells
  Bioburden TSA-SB Aerobic: 7100 CFU/107 Cells and <13 CFU/107 Cells
  Bioburden TSA-SB Anaerobic: 8870 CFU/107 Cells and 1364 CFU/107 Cells
[1]; 0.8% Clorpactin, 2 min, vs control of same tumor
  % Reduction of bioburden TSA-SB Anaerobic: (92%)
[1]; Clorpactin at 0.8% compared with 0.4%
  effect on bioburden (in words): no further reduction in bioburden was observed
[1]
  effect of disinfectant on bioburden (in words): reduced the bioburden in the sample; also recorded: bioburden reductions to almost three orders of magnitude
Microbial growth; [3]
  Sterility FTG: F and P
  Sterility TSB: F
Microbial growth; [4]
  Sterility FTG: F (3×) and P (3×)
  Sterility TSB: F (4×) and P (2×)
Microbial growth; 0.8% Clorpactin, 2 min
  Sterility FTG: F
  Sterility TSB: F

## Cc1ncc([N+](=O)[O-])n1CCO [Flagyl]
Bacteriodes vulgatus; 2.5 and 5 μg/mL, aerobic incubation conditions
  effectiveness against the anaerobe (in words): ineffectual

## C[C@@H]1[C@H](O)[C@@H](C)/C=C/C=C/C=C/C=C/C=C/C=C/C=C/[C@H](O[C@@H]2O[C@H](C)[C@@H](O)[C@H](N)[C@@H]2O)C[C@@H]2O[C@](O)(C[C@@H](O)C[C@@H](O)[C@H](O)CC[C@@H](O)C[C@@H](O)CC(=O)O[C@H]1C)C[C@H](O)[C@H]2C(=O)O [amphotericin B]
Candida albicans; 0.5 to 1.0 μg/mL, observed one day after treatment
  reduction in colonies (in words): Marked reduction in colonies
Candida albicans; observed after 8 days in culture, higher concentration
  inhibition (in words): only slight inhibition
